Laboratory results from patent US5045566A, “Novel imidate insecticides” (ICI Americas Inc., priority 1989, dated 1991).

Experiments:
Format in all cases: in vivo
[1] = system: Beet Armyworm (Spodoptera exigua); assay: Beet armyworm leaf dip (BAW), 5 days; conditions: percent in solution; second-instar larvae; five days
In short: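 Sugar beet leaves dipped 2–3 s in compound diluted in 50:50 acetone-water, dried, then infested with five second-instar larvae in humid petri dishes. Mortality scored at 5 days; concentrations from 0.1% downward. LC50 from dosage-mortality curves, expressed as percent compound in solution.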

[2] = system: Cabbage Looper [Trichoplusia ni (Hubner)]; assay: Cabbage looper leaf dip (CL), 3-5 days; conditions: percent in solution, second-instar larvae
In short: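 LC50, as percent test compound in solution, derived from dosage-mortality curves; concentrations started at 0.1% and went lower. Five second-instar larvae per dish fed on acetone-water-dipped, dried squash cotyledons in a humid chamber. Deaths recorded 3-5 days post-infestation.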

[3] = system: Rice water weevil [Lissorhoptrus oryzophilus (Kuschel)]; assay: Rice water weevil topical (RWW), 48 hours; conditions: μg of test compound per weevil, female adults
In short: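 Female adult weevils (ten per dose) received 1 µl acetone droplets on the ventral abdomen and were held at about 25 °C with wet cotton and rice foliage. Mortality read at 48 h; LC50 from dose-mortality curves, given as µg compound per weevil, top dose 2.5 µg per weevil.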

[4] = system: Housefly [Musca domestica]; assay: Housefly contact mortality in dishes (HF), 48 hours; conditions: μg of test compound per 25 female flies
In short: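 Acetone solutions (with 0.01% peanut oil) dried onto dish bottoms, then 25 female flies, 1-2 days old, caged over the residue with sugar water. Mortality scored at 48 hours; LC50 from dosage-mortality curves, in μg per 25 female flies, top level 100 μg.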

[5] = system: Tobacco Budworm [Heliothis virescens (Fabricius)] larvae; assay: Tobacco budworm larvae, contact (TBW-C), 5 days; conditions: percent in solution, second-instar larvae
In short: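 Cotton cotyledons dipped 2–3 s in compound in 50-50 acetone-water, dried, then infested with 5 second-instar larvae and held 5 days at high humidity. Mortality scored; LC50 from dosage-mortality curves, expressed as percent compound in solution, concentrations from 0.1% downward.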

[6] = system: Aster Leafhopper [Macrosteles fascifrens (Stal)]; assay: Aster leafhopper on dipped oat seedlings (LH), 48 hours; conditions: percent in solution, adults/nymphs
In short: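 Three ~10 cm oat seedlings per cup were dipped 2-3 seconds in 50-50 acetone-water compound solutions, dried, and caged with ten adult/nymph leafhoppers. Mortality was counted after 48 hours at concentrations from 0.05% downward. LC50, as percent compound in solution, came from dosage-mortality curves.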

[7] = system: Tobacco Budworm [Heliothis virescens (Fabricius)] eggs; assay: Tobacco budworm eggs (TBW-E); conditions: percent in solution; 2-day old eggs
In short: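 LC50 is given as percent compound in the dipping solution, fitted from dosage-mortality curves. Two-day-old eggs on paper towel were dipped in acetone solutions (top concentration 0.1%), kept at 78° F on rearing medium, and scored after control hatch and larval feeding.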

[8] = system: Black Bean Aphid [Aphis fabae (Scop.)]; assay: Black bean aphid spray test on nasturtium (BBA), 48 hours; conditions: percent of test compound in sprayed solution
In short: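 LC50, given as percent test compound in the sprayed liquid, was calculated from dosage-mortality curves using concentrations from 0.05% downward. Sprays in 50:50 acetone-water went to runoff on ~5 cm nasturtiums carrying 25-50 aphids of mixed ages, one day after infestation. Deaths were counted 48 h later under greenhouse conditions.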

[9] = system: Maize weevil [Sitophilus zeamais (Motschulsky)]; assay: Maize weevil on dipped corn seeds (MW), 48 hours; conditions: percent in solution, adult weevils
In short: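 LC50, given as percent of compound in dipping solution, comes from dosage-mortality curves over concentrations descending from 0.01%. Four corn seeds soaked 2-3 s in 50:50 acetone:water solution were dried and held with 10 adult weevils, about 25° C, mortality read after 48 h.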

[10] = system: two-spotted mite [Tetranychus urticae (Koch)]; assay: Two-spotted mite activity; conditions: initial testing level 0.05% in solution
Experimental: The compounds in Tables 1 and 2 were also tested for activity against the two-spotted mite [Tetranychus urticae (Koch)] and Western spotted cucumber beetle larvae [Diabrotica undecimpunctata undecimpunctata (Mannerheim)]. Initial testing levels were 0.05% (in solution) against the mite, and 25 ppm (in soil) against the beetle.

SMILES	LC50 BAW [1] [%]	LC50 CL [2] [%]	LC50 RWW [3] [µg]	LC50 HF [4] [µg]	LC50 TBW C (contact) [5] [%]	LC50 LH [6] [%]	LC50 TBW E (eggs) [7] [%]	LC50 BBA [8] [%]	LC50 MW [9] [%]	activity in tests against twospotted mite [10]
CC(C)C(=Nc1ccc2c(c1)OCO2)OCc1cccc(Oc2ccccc2)c1 [Compound 180]	0.005	0.0004	> 2.5	2	0.003	0.0015	0.03	0.0003	0.008	–
CC(C)C(=Nc1ccc(F)c(Cl)c1)OCc1ccc(F)c(Oc2ccc(F)cc2)c1 [Compound 216]	0.0007	0.000007	0.067	2	0.00018	0.00025	0.005	0.00025	0.0017	–
CC(C)C(=Nc1ccc(F)c(Cl)c1)OCc1cccc(Oc2ccc(Cl)cc2)c1 [Compound 239]	0.005	0.00015	> 2.5	14	0.0005	0.002	0.025	0.001	0.006	–
CC(C)C(=Nc1ccc(F)c(Cl)c1)OCc1ccc(F)c(Oc2ccc(Cl)cc2)c1 [Compound 267]	0.0012	0.00008	0.11	8.4	0.0003	0.002	0.015	0.0003	0.0027	–
CC(C)C(=Nc1ccc(Cl)cc1)OCc1cccc(Oc2ccc(Cl)cc2)c1 [Compound 269]	0.0024	0.0003	> 2.5	25	0.001	0.003	0.04	> 0.05	> 0.01	–
CC(C)C(=Nc1ccc(F)c(Br)c1)OCc1ccc(F)c(Oc2ccc(F)cc2)c1 [Compound 273]	0.0017	0.000018	> 2.5	7	0.00025	0.0003	0.015	0.0003	0.004	–
CC(C)C(=Nc1ccc(F)c(C(F)(F)F)c1)OCc1ccc(F)c(Oc2ccc(F)cc2)c1 [Compound 277]	0.005	0.00001	0.065	4	0.0005	0.0003	0.013	0.0008	> 0.01	–
CC(C)C(=Nc1ccc(F)c(F)c1)OCc1ccc(F)c(Oc2ccc(F)cc2)c1 [Compound 278]	0.0012	0.00002	0.085	3	0.00026	0.0003	0.008	0.0005	0.0063	–
CC(C)C(=Nc1ccc(OC(F)(F)F)cc1)OCc1ccc(F)c(Oc2ccc(F)cc2)c1 [Compound 286]	0.0004	0.000024	0.09	34	0.00017	0.0006	0.005	0.0003	0.0039	–
CC(C)C(=Nc1ccc(OC(F)(F)F)cc1)OCc1ccc(F)c(Oc2ccc(Cl)cc2)c1 [Compound 323]	0.0025	0.0006	0.16	> 100	0.00065	0.05	0.045	> 0.05	0.0075	–
CC(C)C(=Nc1ccc(F)c(Cl)c1F)OCc1cccc(Oc2ccc(F)cc2)c1 [Compound 352]	> 0.1	0.000065	> 2.5	4.6	0.0004	0.0004	> 0.1	0.0003	0.0075	–
CC(C)C(=Nc1ccc(OC(F)(F)C(F)Cl)cc1)OCc1cccc(Oc2ccccc2)c1 (stereo not drawn) [Compound 418]	–	> 0.1	–	> 100	–	–	> 0.1	> 0.05	> 0.01	demonstrated activity
CC(C)C(=Nc1ccc(OC(F)(F)C(F)Cl)cc1)OCc1ccc(F)c(Oc2ccccc2)c1 (stereo not drawn) [Compound 419]	–	> 0.1	–	> 100	–	–	> 0.1	> 0.05	> 0.01	demonstrated activity
